Measured values as given in ChEMBL document CHEMBL4725372, “Rational Design of Suprastat: A Novel Selective Histone Deacetylase 6 Inhibitor with the Ability to Potentiate Immunotherapy in Melanoma Models” (J Med Chem, 2020).
Active and inactive are the calls of the source. The rule behind the calls is not given here.

Assays:
Homo sapiens = organism: Homo sapiens; assay: Selectivity index, ratio of IC50 for HDAC1 (unknown origin) to HDAC6 (unknown origin)
Histone deacetylase 11 = target: T1, Histone deacetylase 11 (Homo sapiens, UniProt Q96DB2); assay: Inhibition of human HDAC11 expressed in HEK293/T17 cells pre-incubated for 10 mins before […] addition and measured after 30 mins by fluorescence-based assay; type: cell-based
T1 sequence (Q96DB2 whole entry): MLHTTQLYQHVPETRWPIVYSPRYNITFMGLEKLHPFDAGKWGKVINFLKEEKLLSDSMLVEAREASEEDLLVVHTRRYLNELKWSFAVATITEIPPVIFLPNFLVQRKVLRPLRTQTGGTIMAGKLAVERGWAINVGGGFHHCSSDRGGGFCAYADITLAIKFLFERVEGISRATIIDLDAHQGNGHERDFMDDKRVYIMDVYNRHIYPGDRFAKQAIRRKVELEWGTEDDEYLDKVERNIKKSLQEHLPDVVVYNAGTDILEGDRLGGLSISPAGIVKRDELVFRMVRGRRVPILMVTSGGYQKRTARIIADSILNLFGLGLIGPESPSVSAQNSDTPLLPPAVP

HEK293 [1] = assay: Selectivity index, ratio of IC50 for human HDAC1 expressed in HEK293/T17 cells (unknown origin) to human HDAC6 expressed in HEK293/T17 cells; type: cell-based
HEK293 [2] = assay: Selectivity index, ratio of IC50 for human HDAC2 expressed in HEK293/T17 cells (unknown origin) to human HDAC6 expressed in HEK293/T17 cells; type: cell-based
HEK293 [3] = assay: Selectivity index, ratio of IC50 for human HDAC3 expressed in HEK293/T17 cells (unknown origin) to human HDAC6 expressed in HEK293/T17 cells; type: cell-based
HEK293 [4] = assay: Selectivity index, ratio of IC50 for human HDAC4 expressed in HEK293/T17 cells (unknown origin) to human HDAC6 expressed in HEK293/T17 cells; type: cell-based
HEK293 [5] = assay: Selectivity index, ratio of IC50 for human HDAC5 expressed in HEK293/T17 cells (unknown origin) to human HDAC6 expressed in HEK293/T17 cells; type: cell-based
HEK293 [6] = assay: Selectivity index, ratio of IC50 for human HDAC6 expressed in HEK293/T17 cells (unknown origin) to human HDAC6 expressed in HEK293/T17 cells; type: cell-based
HEK293 [7] = assay: Selectivity index, ratio of IC50 for human HDAC7 expressed in HEK293/T17 cells (unknown origin) to human HDAC6 expressed in HEK293/T17 cells; type: cell-based
HEK293 [8] = assay: Selectivity index, ratio of IC50 for human HDAC8 expressed in HEK293/T17 cells (unknown origin) to human HDAC6 expressed in HEK293/T17 cells; type: cell-based
HEK293 [9] = assay: Selectivity index, ratio of IC50 for human HDAC9 expressed in HEK293/T17 cells (unknown origin) to human HDAC6 expressed in HEK293/T17 cells; type: cell-based
[10] = Half life in PBS by LC-MS/MS analysis; type: physicochemical
[11] = Half life in SGF by LC-MS/MS analysis; type: ADME
[12] = Half life in human plasma at 10 uM by LC-MS/MS analysis; type: ADME, cell-free
[13] = Half life in rat liver microsome at 10 uM by LC-MS/MS analysis; type: ADME; conditions: liver microsomes
[14] = Protein binding in human plasma at 10 uM incubated for 1 hr by LC-MS/MS analysis; type: ADME, cell-free; conditions: read-out: PPB (converted)
[15] = target: T2, Protein deacetylase HDAC6 (Homo sapiens) (UniProt Q9UBN7); assay: Inhibition of human HDAC6 in human WM164 cells increase in acetylated alpha-tubulin levels at 0.1 to 10 uM by immunoblot analysis; type: cell-based; conditions: dose microM 0.1-10
T2 sequence (whole entry): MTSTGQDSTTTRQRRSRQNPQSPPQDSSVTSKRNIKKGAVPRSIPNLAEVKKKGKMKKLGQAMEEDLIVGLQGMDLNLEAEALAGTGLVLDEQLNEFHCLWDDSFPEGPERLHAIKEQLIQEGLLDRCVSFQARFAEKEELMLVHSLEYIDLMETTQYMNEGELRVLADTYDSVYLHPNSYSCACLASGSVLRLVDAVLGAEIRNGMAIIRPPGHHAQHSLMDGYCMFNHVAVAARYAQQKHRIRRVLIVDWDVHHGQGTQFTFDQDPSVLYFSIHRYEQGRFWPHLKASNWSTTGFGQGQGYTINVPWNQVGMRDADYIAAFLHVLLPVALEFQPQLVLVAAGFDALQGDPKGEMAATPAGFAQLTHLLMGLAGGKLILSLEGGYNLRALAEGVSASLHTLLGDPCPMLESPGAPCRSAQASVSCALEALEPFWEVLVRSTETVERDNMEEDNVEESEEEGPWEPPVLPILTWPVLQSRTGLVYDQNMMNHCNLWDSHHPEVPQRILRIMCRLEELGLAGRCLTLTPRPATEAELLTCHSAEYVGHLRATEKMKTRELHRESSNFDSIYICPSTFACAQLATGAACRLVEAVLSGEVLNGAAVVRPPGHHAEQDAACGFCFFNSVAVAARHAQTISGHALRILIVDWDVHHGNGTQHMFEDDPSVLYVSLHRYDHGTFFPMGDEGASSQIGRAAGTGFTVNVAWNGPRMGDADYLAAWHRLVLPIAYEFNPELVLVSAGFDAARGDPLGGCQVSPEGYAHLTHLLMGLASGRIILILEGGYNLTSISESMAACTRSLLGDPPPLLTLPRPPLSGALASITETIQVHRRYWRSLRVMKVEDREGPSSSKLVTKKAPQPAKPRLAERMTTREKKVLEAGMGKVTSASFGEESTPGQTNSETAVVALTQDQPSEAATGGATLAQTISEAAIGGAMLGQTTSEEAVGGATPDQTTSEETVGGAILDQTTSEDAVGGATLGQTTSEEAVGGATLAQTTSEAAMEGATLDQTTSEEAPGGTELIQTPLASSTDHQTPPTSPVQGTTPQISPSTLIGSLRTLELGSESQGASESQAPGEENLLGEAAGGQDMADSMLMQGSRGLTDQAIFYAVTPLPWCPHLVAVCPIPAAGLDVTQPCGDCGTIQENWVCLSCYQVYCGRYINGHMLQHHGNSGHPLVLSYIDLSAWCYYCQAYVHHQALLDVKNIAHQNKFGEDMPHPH

[16] = target: Histone deacetylase (Homo sapiens) (UniProt Q13547+O15379+Q9UBN7+Q92769+Q9UQL6+Q8WUI4+Q9BY41+Q96DB2+P56524+Q9UKV0+Q969S8); assay: Inhibition of human HDAC in human WM164 cells increase in acetylated histone H3 levels at 0.1 to 10 uM by immunoblot analysis; type: cell-based; conditions: dose microM 0.1-10
SM1 [17] = assay: Cytotoxicity in mouse SM1 cells assessed as reduction in cell viability up to 25 uM; type: functional, cell-based; conditions: dose microM <=25
Histone deacetylase 1 = Histone deacetylase 1 (Homo sapiens, UniProt Q13547)
Histone deacetylase 1, sequence (Q13547 whole entry): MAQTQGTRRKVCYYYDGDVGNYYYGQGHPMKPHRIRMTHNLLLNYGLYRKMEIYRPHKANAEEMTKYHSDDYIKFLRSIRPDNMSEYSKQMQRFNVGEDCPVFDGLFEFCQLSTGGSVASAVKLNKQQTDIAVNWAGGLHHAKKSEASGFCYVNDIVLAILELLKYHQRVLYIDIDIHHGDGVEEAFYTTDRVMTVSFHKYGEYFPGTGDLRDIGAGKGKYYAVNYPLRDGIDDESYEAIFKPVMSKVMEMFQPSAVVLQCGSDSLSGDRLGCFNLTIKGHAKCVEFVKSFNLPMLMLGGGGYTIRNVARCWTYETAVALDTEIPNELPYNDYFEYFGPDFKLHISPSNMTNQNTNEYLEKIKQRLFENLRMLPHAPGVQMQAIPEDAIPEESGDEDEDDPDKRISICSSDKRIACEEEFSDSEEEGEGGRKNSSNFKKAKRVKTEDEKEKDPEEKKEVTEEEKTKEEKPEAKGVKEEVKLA
Description: Inhibition of HDAC1 (unknown origin)

[18] = target: T3, Protein deacetylase HDAC6 (Homo sapiens, UniProt Q9UBN7)
T3 sequence (Q9UBN7 whole entry): T2 sequence (whole entry)
Description: Inhibition of HDAC6 (unknown origin)

[19] = target: T2, Protein deacetylase HDAC6 (Homo sapiens); assay: Inhibition of human HDAC6 in human WM164 cells assessed as decrease in STAT3 Y705 phosphorylation at 5 uM pre-incubated before IL6 stimulation for 20 mins by immunoblot analysis; type: cell-based
SM1 [20] = assay: Potentiation of antitumor immune response in C57BL/6 mouse harboring mouse SM1 cells assessed as decrease in tumor burden at 25 mg/kg, ip dosed 5 days per week before starting 15 mg/kg, ip anti-PD1 immune checkpoint blockade therapy measured on day 14; type: functional, organism-based; conditions: time 14.0 day
SM1 [21] = assay: Potentiation of antitumor immune response in C57BL/6 mouse harboring mouse SM1 cells assessed as decrease in tumor burden at 25 mg/kg, ip dosed 5 days per week before starting 15 mg/kg, ip anti-PD1 immune checkpoint blockade therapy measured on day 20; type: functional, organism-based; conditions: time 20.0 day

SMILES | Ratio IC50 (Homo sapiens) | IC50 (Histone deacetylase 11) [nM] | half-life [10] [h] | half-life [11] [h] | half-life at 10 µM [12] [h] | half-life at 10 µM [13] [h] | fraction unbound at 1 h, 10 µM [14] | inhibition [15] | inhibition [16] | IC50 (Histone deacetylase 1) [nM] | IC50 [18] [nM] | Ratio IC50 (HEK293 [1]) | Ratio IC50 (HEK293 [2]) | Ratio IC50 (HEK293 [3]) | Ratio IC50 (HEK293 [4]) | Ratio IC50 (HEK293 [5]) | Ratio IC50 (HEK293 [6]) | Ratio IC50 (HEK293 [7]) | Ratio IC50 (HEK293 [8]) | Ratio IC50 (HEK293 [9]) | other results
O=C(NO)c1ccc(CN(CCCCO)C(=O)Nc2ccccc2)cc1 | – | > 50000 | > 24 | > 5 | > 5 | 3.3 | 0.52 | Dose-dependent effect | Active | – | – | 296 | 536 | 1160 | 27900 | 18300 | 1 | 3870 | 956 | 59500 | Activity (SM1 [17]): inactive
C[C@H](NC(=O)[C@H](CC(=O)NC(C)(C)C)NC(=O)c1ccc(C(=O)NO)cc1)C(=O)NCc1ccccc1 | 26 | – | – | – | – | – | – | – | – | 6900 | 270 | – | – | – | – | – | – | – | – | – | –
CCCCN(Cc1ccc(C(=O)NO)cc1)C(=O)Nc1ccc(CN)cc1 | – | > 50000 | > 24 | > 5 | > 5 | 2.88 | 0.53 | Dose-dependent effect | Active | – | – | 89 | 312 | 492 | 25700 | 11200 | 1 | 10000 | 682 | 19200 | –

Second part, led by results:

Ratio IC50 (Homo sapiens) | IC50 (Histone deacetylase 11) [nM] | half-life [10] [h] | half-life [11] [h] | half-life at 10 µM [12] [h] | half-life at 10 µM [13] [h] | fraction unbound at 1 h, 10 µM [14] | inhibition [15] | inhibition [16] | IC50 (Histone deacetylase 1) [nM] | IC50 [18] [nM] | SMILES | Ratio IC50 (HEK293 [1]) | Ratio IC50 (HEK293 [2]) | Ratio IC50 (HEK293 [3]) | Ratio IC50 (HEK293 [4]) | Ratio IC50 (HEK293 [5]) | Ratio IC50 (HEK293 [6]) | Ratio IC50 (HEK293 [7]) | Ratio IC50 (HEK293 [8]) | Ratio IC50 (HEK293 [9]) | other results
260 | – | – | – | – | – | – | – | – | – | – | O=C(NO)c1cnc(NC2(c3ccccc3)CCC(F)(F)CC2)nc1 | – | – | – | – | – | – | – | – | – | –
36 | – | – | – | – | – | – | – | – | 1130 | 31 | O=C(NO)c1ccc(CN(CCCO)C(=O)Cc2ccccc2)cc1 | – | – | – | – | – | – | – | – | – | –
– | – | > 24 | > 5 | > 5 | 7.05 | 0.11 | Dose-dependent effect | Active | – | – | CCCCN(Cc1ccc(C(=O)NO)cc1)C(=O)Nc1ccccc1 [NEXTURASTAT A] | – | – | – | – | – | – | – | – | – | inhibition [19]: Active; TGI (SM1 [20]): Active; Activity (SM1 [21]): Active
